Holding throughout (type): cell-based
One assay concerns HEK-293 cells. The assay is described as follows: HEK-293 growth inhibition assay. Particulars: 3 days, CTG. The protocol:
Cluster plates are returned to the incubator (37*C/5% CO2) for 24 hours prior to treatment. […] Cluster plates are returned to the incubator for 3 days.
After the 3-day treatment period, 100 uL media was removed from each well by aspiration and 100 uL room temperature CTG reagent (Promega Cat #G7573) is added back to each well. The cluster plates are placed on a shaker and incubated at room temperature for 20 minutes. Following this shaking/incubation, cluster plates are read on a luminometer (BMG ClarioStar). IC50 values are obtained by graphing the RLU data vs. compound concentration with nonlinear regression 4-parameter logistic curves (GraphPad Prism).

The subject of another assay is AR / CBP ternary complex. The assay is described as follows: Ternary complex formation assay (sandwich ELISA, AR capture / CBP detection) in VCaP cell lysates. As to conditions: 1.5 hours treatment, sandwich ELISA (AR capture, CBP or p300 detection). In a few lines: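 Anti-AR (AR 441)-coated plates capture AR from lysates of VCaP cells grown ≥3 days at 50K/well in 5% charcoal-stripped FBS, dosed with bifunctional for 1.5 h and lysed 30 min at 4 °C. Co-captured CBP/p300 is probed with rabbit mAb and HRP anti-rabbit, then QuantaRed fluorescence (570/585) is read at 0, 5 and 15 min.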
A general note: An ELISA detects its analyte on a solid surface through an enzyme-linked reagent.

A further assay has as its system VCaP cells. Put plainly: VCaP growth inhibition assay. Particulars: 30 pM R1881, 9 days, CTG. The essentials:
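Growth read by CTG luminescence after 9-day exposure to compound (final 100 nM–10 fM, 1:5 steps) plus 30 pM R1881, in phenol red-free DMEM with 5% CSS. Cells pre-incubated 72 h before dosing; IC50 by nonlinear 4-parameter regression.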

These results are taken from US20250129070A1, “BIFUNCTIONAL ANDROGEN RECEPTOR COMPOUNDS” (priority 2023, published 2025).

By IC50 is commonly meant the midpoint of a concentration-inhibition curve. Low readings indicate higher potency, high ones lower potency. As a reminder, the EC50 is the concentration at which the effect is half-maximal. A low value points to an effect from little substance.

For `CC(=O)N1CCc2c(c(Nc3ccc(-c4cnn(C)c4)cc3F)nn2C2CCN(C(=O)CN3CCN(c4ncc(C(=O)NC5C(C)(C)C(Oc6ccc(C#N)c(Cl)c6)C5(C)C)cn4)CC3)CC2)C1` (stereo not drawn) [Compound 66, 2-[4-[2-[4-[5-acetyl-3-[2-fluoro-4-(1-methylpyrazol-4-yl)anilino]-6,7-dihydro-4H-pyrazolo[4,3-c]pyridin-1-yl]-1-piperidyl]-2-oxo-ethyl]piperazin-1-yl]-N-[3-(3-chloro-4-cyano-phenoxy)-2,2,4,4-tetramethyl-cyclobutyl]pyrimidine-5-carboxamide], the IC50 was over 10000 nM with HEK-293 cells and 0.1 to 1 nM in the assay on VCaP cells. This compound came in with an EC50 with AR / CBP ternary complex of under 1 nM.
On to `CNC(=O)N1CCc2c(c(N3CCCc4cc(-c5cnn(C)c5)c(C(F)F)cc43)nn2C2CCN(C(=O)COCC3CCN(c4ncc(C(=O)NC5C(C)(C)C(Oc6ccc(C#N)c(Cl)c6)C5(C)C)cn4)CC3)CC2)C1` (stereo not drawn) [Compound 107, 1-[1-[2-[[1-[5-[[3-(3-chloro-4-cyano-phenoxy)-2,2,4,4-tetramethyl-cyclobutyl]carbamoyl]pyrimidin-2-yl]-4-piperidyl]methoxy]acetyl]-4-piperidyl]-3-[7-(difluoromethyl)-6-(1-methylpyrazol-4-yl)-3,4-dihydro-2H-quinolin-1-yl]-N-methyl-6,7-dihydro-4H-pyrazolo[4,3-c] pyridine-5-carboxamide], for which the figures for the IC50 with HEK-293 cells and in the assay on VCaP cells were over 10000 nM and at most 0.1 nM, respectively. The same compound returned an EC50 in the assay with AR / CBP ternary complex of under 1 nM.
`COc1cc(OC2C(C)(C)C(NC(=O)c3ccc(N4CCC(CN5CCC(n6nc(N7CCCc8cc(-c9cnn(C)c9)c(C(F)F)cc87)c7c6CCN(C(C)=O)C7)CC5)C(C)C4)cc3)C2(C)C)ccc1C#N` (stereo not drawn) [Compound 263, 4-[4-[[4-[5-acetyl-3-[7-(difluoromethyl)-6-(1-methylpyrazol-4-yl)-3,4-dihydro-2H-quinolin-1-yl]-6,7-dihydro-4H-pyrazolo[4,3-c]pyridin-1-yl]-1-piperidyl]methyl]-3-methyl-1-piperidyl]-N-[3-(4-cyano-3-methoxy-phenoxy)-2,2,4,4-tetramethyl-cyclobutyl]benzamide]: the figures for the IC50 in the assay with HEK-293 cells and in the assay on VCaP cells were over 1000 nM and at most 0.1 nM, respectively. The concentration giving a half-maximal response (EC50) in the assay with AR / CBP ternary complex is under 1 nM.
Turning to `CNC(=O)N1CCc2c(c(N3CCCc4cc(-c5cnn(C)c5)c(C(F)F)cc43)nn2C2CCN(CC3CCN(c4ncc(C(=O)NC5C(C)(C)C(Oc6ccc(C#N)c(Cl)c6)C5(C)C)cn4)CC3)CC2)C1` (stereo not drawn) [Compound 82, 1-[1-[[1-[5-[[3-(3-chloro-4-cyano-phenoxy)-2,2,4,4-tetramethyl-cyclobutyl]carbamoyl]pyrimidin-2-yl]-4-piperidyl]methyl]-4-piperidyl]-3-[7-(difluoromethyl)-6-(1-methylpyrazol-4-yl)-3,4-dihydro-2H-quinolin-1-yl]-N-methyl-6,7-dihydro-4H-pyrazolo[4,3-c]pyridine-5-carboxamide], the IC50 in the assay on HEK-293 cells is over 10000 nM; with VCaP cells, at most 0.1 nM. Moreover, in the assay with AR / CBP ternary complex, the EC50 was under 1 nM.
As for `COc1cc(OC2C(C)(C)C(NC(=O)c3ccc(N4CC5(CCC(N6CCC(n7nc(N8CCCc9cc(-c%10cnn(C)c%10)c(C(F)F)cc98)c8c7CCN(C(C)=O)C8)CC6)CC5)C4)cc3)C2(C)C)ccc1C#N` (stereo not drawn) [Compound 273, 4-[7-[4-[5-acetyl-3-[7-(difluoromethyl)-6-(1-methylpyrazol-4-yl)-3,4-dihydro-2H-quinolin-1-yl]-6,7-dihydro-4H-pyrazolo[4,3-c]pyridin-1-yl]-1-piperidyl]-2-azaspiro[3.5]nonan-2-yl]-N-[3-(4-cyano-3-methoxy-phenoxy)-2,2,4,4-tetramethyl-cyclobutyl]benzamide], the half-maximal inhibitory concentration (IC50) is over 1000 nM in the assay on HEK-293 cells and at most 0.1 nM in the assay on VCaP cells. The compound further yielded an EC50 in the assay with AR / CBP ternary complex of under 1 nM.
Take `CNC(=O)N1CCc2c(c(N3CCCc4cc(-c5cnn(C)c5)c(C(F)F)cc43)nn2C2CCN(C(=O)COCCC3CCN(c4ncc(C(=O)NC5C(C)(C)C(Oc6ccc(C#N)c(Cl)c6)C5(C)C)cn4)CC3)CC2)C1` (stereo not drawn) [Compound 99, 1-[1-[2-[2-[1-[5-[[3-(3-chloro-4-cyano-phenoxy)-2,2,4,4-tetramethyl-cyclobutyl]carbamoyl]pyrimidin-2-yl]-4-piperidyl]ethoxy]acetyl]-4-piperidyl]-3-[7-(difluoromethyl)-6-(1-methylpyrazol-4-yl)-3,4-dihydro-2H-quinolin-1-yl]-N-methyl-6,7-dihydro-4H-pyrazolo[4,3-c]pyridine-5-carboxamide]: the concentration for half-maximal inhibition (IC50) in the assay on HEK-293 cells is over 10000 nM; in the assay with VCaP cells, at most 0.1 nM. For the same compound, the EC50 in the assay on AR / CBP ternary complex was under 1 nM.
As to `CC(=O)N1CCc2c(c(-c3cccc4cc(-c5ccc(C(=O)NCCCc6ncc(C(=O)NC7C(C)(C)C(Oc8ccc(C#N)c(Cl)c8)C7(C)C)cn6)nc5)ncc34)nn2C2CCOCC2)C1` (stereo not drawn) [Compound 77, 2-[3-[[5-[8-(5-acetyl-1-tetrahydropyran-4-yl-6,7-dihydro-4H-pyrazolo[4,3-c]pyridin-3-yl)-3-isoquinolyl]pyridine-2-carbonyl]amino]propyl]-N-[3-(3-chloro-4-cyano-phenoxy)-2,2,4,4-tetramethyl-cyclobutyl]pyrimidine-5-carboxamide], the 50% inhibitory concentration (IC50) was over 10000 nM in the assay with HEK-293 cells and 0.1 to 1 nM in the assay on VCaP cells. The compound further came in with an EC50 in the assay with AR / CBP ternary complex of under 1 nM.
For `CNC(=O)N1CCc2c(c(N3CCCc4cc(-c5cnn(C)c5)c(C(F)F)cc43)nn2C2CCN(C(=O)COCCCOCC3CCN(c4ncc(C(=O)NC5C(C)(C)C(Oc6ccc(C#N)c(Cl)c6)C5(C)C)cn4)CC3)CC2)C1` (stereo not drawn) [Compound 97, 1-[1-[2-[3-[[1-[5-[[3-(3-chloro-4-cyano-phenoxy)-2,2,4,4-tetramethyl-cyclobutyl]carbamoyl]pyrimidin-2-yl]-4-piperidyl]methoxy]propoxy]acetyl]-4-piperidyl]-3-[7-(difluoromethyl)-6-(1-methylpyrazol-4-yl)-3,4-dihydro-2H-quinolin-1-yl]-N-methyl-6,7-dihydro-4H-pyrazolo[4,3-c]pyridine-5-carboxamide], the IC50 was over 10000 nM with HEK-293 cells and at most 0.1 nM with VCaP cells. This compound also displayed an EC50 with AR / CBP ternary complex of under 1 nM.
For `CNC(=O)N1CCc2c(c(N3CCCc4cc(-c5cnn(C)c5)c(C(F)F)cc43)nn2C2CCN(CCOc3ncc(C(=O)NC4C(C)(C)C(Oc5ccc(C#N)c(Cl)c5)C4(C)C)cn3)CC2)C1` (stereo not drawn) [Compound 87, 1-[1-[2-[5-[[3-(3-chloro-4-cyano-phenoxy)-2,2,4,4-tetramethyl-cyclobutyl]carbamoyl]pyrimidin-2-yl]oxyethyl]-4-piperidyl]-3-[7-(difluoromethyl)-6-(1-methylpyrazol-4-yl)-3,4-dihydro-2H-quinolin-1-yl]-N-methyl-6,7-dihydro-4H-pyrazolo[4,3-c]pyridine-5-carboxamide], the half-maximal inhibitory concentration (IC50) in the assay on HEK-293 cells was over 10000 nM; with VCaP cells, 0.1 to 1 nM. The compound further returned an EC50 in the assay with AR / CBP ternary complex of under 1 nM.
Consider `CNC(=O)N1CCc2c(c(N3CCCc4cc(-c5cnn(C)c5)c(C(F)F)cc43)nn2C2CCN(CCc3ncc(C(=O)NC4C(C)(C)C(Oc5ccc(C#N)c(Cl)c5)C4(C)C)cn3)CC2)C1` (stereo not drawn) [Compound 90, 1-[1-[2-[5-[[3-(3-chloro-4-cyano-phenoxy)-2,2,4,4-tetramethyl-cyclobutyl]carbamoyl]pyrimidin-2-yl]ethyl]-4-piperidyl]-3-[7-(difluoromethyl)-6-(1-methylpyrazol-4-yl)-3,4-dihydro-2H-quinolin-1-yl]-N-methyl-6,7-dihydro-4H-pyrazolo[4,3-c]pyridine-5-carboxamide], for which the IC50 was 2160 nM in the assay on HEK-293 cells and over 100 nM with VCaP cells. Besides, in the assay with AR / CBP ternary complex, the half-maximal effective concentration (EC50) was under 1 nM.
For `CNC(=O)N1CCc2c(c(N3CCCc4cc(-c5cnn(C)c5)c(C(F)F)cc43)nn2C2CCN(C(=O)CC3CCN(c4ncc(C(=O)NC5C(C)(C)C(Oc6ccc(C#N)c(Cl)c6)C5(C)C)cn4)CC3)CC2)C1` (stereo not drawn) [Compound 101, 1-[1-[2-[1-[5-[[3-(3-chloro-4-cyano-phenoxy)-2,2,4,4-tetramethyl-cyclobutyl]carbamoyl]pyrimidin-2-yl]-4-piperidyl]acetyl]-4-piperidyl]-3-[7-(difluoromethyl)-6-(1-methylpyrazol-4-yl)-3,4-dihydro-2H-quinolin-1-yl]-N-methyl-6,7-dihydro-4H-pyrazolo[4,3-c]pyridine-5-carboxamide], the IC50 was over 10000 nM in the assay on HEK-293 cells and at most 0.1 nM with VCaP cells. The EC50 in the assay with AR / CBP ternary complex was under 1 nM.
For the compound `CC(=O)N1CCc2c(c(-c3cccc4cc(-c5cnc(CCN(C)c6ncc(C(=O)NC7C(C)(C)C(Oc8ccc(C#N)c(Cl)c8)C7(C)C)cn6)nc5)ncc34)nn2C2CCOCC2)C1` (stereo not drawn) [Compound 74, 2-[2-[5-[8-(5-acetyl-1-tetrahydropyran-4-yl-6,7-dihydro-4H-pyrazolo[4,3-c]pyridin-3-yl)-3-isoquinolyl]pyrimidin-2-yl]ethyl-methyl-amino]-N-[3-(3-chloro-4-cyano-phenoxy)-2,2,4,4-tetramethyl-cyclobutyl]pyrimidine-5-carboxamide], the 50% inhibitory concentration (IC50) is over 10000 nM in the assay on HEK-293 cells and 1 to 100 nM with VCaP cells. Further, the concentration giving a half-maximal response (EC50) with AR / CBP ternary complex is under 1 nM.
